Laboratory results as given in article PMC10616807, “3′-O-β-Glucosyl-4′,5′-didehydro-5′-deoxyadenosine Is a Natural Product of the Nucleocidin Producers Streptomyces virens and Streptomyces calvus” (Journal of Natural Products, 2023).

System: T1, NucGT
T1 construct: glucosyltransferase enzyme
Experiment: HPLC product assay at […] nm, initial rates, Michaelis-Menten fit
Format: biochemical, Streptomyces calvus
Conditions: 17.7 mM UDP-glucose (saturating), 100 mM MgCl2, 50 mM Tris-HCl pH 7.8, 37 °C

SMILES | Km
C=C1O[C@@H](n2cnc3c(N)ncnc32)[C@H](O)[C@@H]1O [compound 12, 4′,5′-didehydro-5′-deoxyadenosine] | 365 ± 6 µM
Nc1ncnc2c1ncn2[C@@H]1O[C@H](CO)[C@@H](O)[C@H]1O [adenosine] | 487 ± 53 µM
